Assay results published in US11535595B2, “Isoquinoline sulfonyl chloride acid addition salts and method of manufacture thereof” (D. WESTERN THERAPEUTICS INSTITUTE, INC., priority 2018, dated 2022).

| melting point | Compound |
| --- | --- |
| 102 °C (dec.) | Cl.O=S(=O)(Cl)c1ccc2cnccc2c1 |
| 80 °C | c1ccc(CSc2ccc3cnccc3c2)cc1 [compound (4), 6-(benzylthio)isoquinoline] |
